Source: patent publication US20120302530A1, “23-HYDROXY-BETULINIC ACID DERIVATIVES, PREPARATION METHODS AND USES THEREOF” (priority 2009, published 2012)

How the values were obtained:
HIV-1Ada-M = assay: ELISA of HIV-1Ada-M p24 antigen expression in PBMC; format: cell-based; settings: for therapeutic index TI: HIV-1Ada-M p24, PBMC, TI=IC50/EC50; for EC50: Human immunodeficiency virus 1, HIV-1Ada-M, PBMC, 7th day, ELISA, read-out: EC50, inhibition of p24 antigen expression
Excerpt: (4) Quantitative Enzyme Linked Immunoadsorbent method (EIISA) detecting inhibiting effects of compounds to virus HIV-1Ada-Mp24 expression: (see JIANG, Haiou; WANG, Xu; L I, Rurun; CHEN, Dagang; B I, Kunlong, Experimental Research on Recipe Sanhuangsan Capsule Resisting AIDS Virus in Vitro, [J], Shandong Journal of Traditional Chinese medicine, 2005.8 (1):21-26).
Multi-heads sample injector is used to conduct triple dilution to the sample on the 96-hole culture plate. There are 6 dilutions, in which each dilution has 3 duplicate holes, and each hole is 100 ul. […] On the 96-hole flat culture plate, each hole is added with 25 ul virus stock solution containing 1000˜5000 pg/well P24 antigen, which is sufficiently blended. 75 ul mononuclear cell PBMC suspension liquid is added (3×10^5 cell numbers/hole). Upon placing in incubator of 37° C., 5% CO2 to the third day, 100 ul of culture medium is added to each hole. On the 7th day, cell culture supernatant is collected for p24 antigen test. According to p24 kit description, ELISA method is used to measure the virus HIV-1 p24 antigen concentration of each sample cell culture hole supernatant. The following formula is used to calculate the inhibition ratio of sample to virus.
Inhibition ratio of sample to virus p24 antigen (%)=(1−experimental hole OD value/cell+virus control hole OD value)×100%. Reed and Mueneh method is used to calculate EC50 of the test sample, and to further calculate the therapeutic index (TI) (TI=IC50/EC50). […] The positive control SCH-C, 23-hydroxyl-betulinic acid, compounds zhangnan-5, zhangnan-7 and zhangnan-8 all reach an inhibition ratio above 50% within the tested range. The positive control SCH-C inhibits HIV-1Ada-M p24 antigen expression. […] In addition, the inhibition effect to HIV-1Ada-M has significant dose-effect relationship with its concentration.

[1] = Side effects in the xenograft studies; settings: tumor-bearing nude mice, 30 mg/kg oral
Excerpt: (7) Drug administration of human tumor xenograft model and nude mice tumor transplantation model: (see Harrison S D Jr; Growth of human tumor cells in athymic mice; J Natl Cancer Inst. 1991 Oct. 16; 83 (20): 1509).
T cell deficiency nude mice (nu/nu) (male, 6-week old) are bought from Charles River Lab, and are raised in pathogen-free environment according to guidelines of animal raising and using committee of university. The number of […] LNCaP, NCI-H23, HCT-116, G-361 and U-251 cells are suspended in 0.2 ml HBSS or matrigel (50: 50, v/v), and are subcutaneously vaccinated to the side abdomen region of the mice. When the average diameters of the tumors are 7˜8 mm, the mice having tumor size of 100˜200 mm3 are chosen, and are given with treatment group of compound zhangnan-5 prepared with corn oil and are only given with control group of empty carrier (corn oil), respectively.
In the oral feeding test, the compound zhangnan-5 (30 mg/kg) is dissolved in corn oil. Each day the mice are tube fed with 200 μl drug liquid in single dose (prepared with corn oil, containing 0.75 mg compound zhangnan-5) for 5 times a week and for 3 weeks. The control group is given placebo (corn oil) according to same method. The mice are raised separately, and are allowed to self-help feeding.

HIV-1IIIB = assay: Inhibition of HIV-1IIIB induced syncytium formation in C8166 cells; format: cell-based; settings: for therapeutic index TI: HIV-1IIIB syncytium, C8166, TI=IC50/EC50; for EC50: Human immunodeficiency virus 1, HIV-1IIIB, C8166 cells, third day after infection
Excerpt: (3) The inhibition effects of compounds zhangnan-5, zhangnan-7 and zhangnan-8 to virus HIV-1IIIB inducing C8166 cell to form syncytium: (see JIANG, Haiou; WANG, Xu; L I, Rurun; CHEN, Dagang; B I, Kunlong, Experimental Research on Recipe Sanhuangsan Capsule for Resisting AIDS virus in Vitro, [J]. Shandong Journal of Traditional Chinese medicine, 2005.8 (1):21-26).
The test sample is double diluted with culture medium on the 96-hole flat culture plate. There are 8 dilutions in total. Each hole 100 ul has 2 duplicate holes. In addition, there are positive control group, cell control group and virus control group. 80 ul C8166 cell of 4×10^5/ml is added into each hole, and then 20 ul virus HIV-1IIIB supernatant is added into each hole. The final volume of each hole is 200 ul. The sample is placed in incubator of 370C, 5% CO2 for cultivation. […] Under the inverted microscope, the number of syncytium formed by virus HIV-1IIIB inducing C8166 cell is counted. […] The following formula is used to calculate the inhibition ratio of the sample to syncytium.
Inhibition ratio formed by syncytium (%)=(1−experimental hole syncytium number/control hole syncytium number)×100%

human tumor cell strains = assay: MTT cytotoxicity, human tumor cell strains (summary statement); format: cell-based; settings: some (unnamed) human tumor cell strains, 72 hours, read-out: EC50 of some tumor cells
Excerpt: We use human tumor cell lines to conduct cytotoxicity analysis. Thirty-one (31) kinds of human tumor cell strains are cultivated in the normal culture medium containing various compounds of zhangnan-5, zhangnan-7 and zhangnan-8. The human tumor lines are bought from ATCC and NCI, and is cultivated with DMEM culture solution containing 10% FBS in 370C couveuse containing 5% CO2. The merged cells are digested by trypsinase, and are counted after washed by the culture solution. 3000˜6000 cells are added into each hole of the 96-hole culture plate, and are hatched for 16 hours or 24 hours. Then, compounds zhangnan-5, zhangnan-7 and zhangnan-8 with different concentrations are added into the holes. Upon further cultivated for another 72 hours, MTT tests are conducted to cells in group treated with drugs and the control group cells, to determine the survival condition of the cells.

[2] = test system: normal mice fibroblast (MEF); assay: MTT cytotoxicity, normal cell strain; format: cell-based, mouse; settings: for EC50: Normal Mouse Fibroblast, 72 hours, MTT; for sensitivity of normal cells to the compounds: concentration up to 30 μm, cells can still grow well
normal person PBMC = assay: Toxicity to PBMC cells (MTT, day 7); format: cell-based, human; settings: Homo sapiens, 168 h, day 7, MTT
Protocol: (2) Toxicity of compounds zhangnan-5, zhangnan-7 and zhangnan-8 to C8166 and PBMC cells:
C8166 (human T cell line) and PBM (using lymphocyte isolation liquid to separate from normal human peripheral blood, and adhered mononuclear cell separated from PBMC) cells in exponential phase are taken. The cells are resuspended after centrifugal (1000 r•min-1, 10 min), and the concentrations are adjusted to 4×10^5/ml and 2×10^6/ml. The test samples are double diluted on the 96-hole cell culture plate. In total 6 gradients are set, each having 3 duplicate holes. In addition, positive control group and cell control group are set. Upon adding cell suspended liquid, the test samples are placed in incubator of 370C and 5% CO2 for incubation. On the seventh (7th) day, MTT method is used to determine toxicity of the samples to cells.
Inhibition ratio of cell growth (%)=(1−experimental hole OD value/control hole (OD value)×100%

| Structure (SMILES) | therapeutic index TI (HIV-1Ada-M) | EC50 (HIV-1Ada-M) [nM] | side effects, including changes in weight [1] | therapeutic index TI (HIV-1IIIB) | EC50 (HIV-1IIIB) [nM] | EC50 (human tumor cell strains) [nM] | EC50 [2] [µM] | sensitivity of normal cells to the compounds [2] | IC50 (normal person PBMC) [µM] |
| --- | --- | --- | --- | --- | --- | --- | --- | --- | --- |
| C=C(C)C1CCC2(C(=O)O)CCC3(C)C(CCC4C5(C)CCC(=O)C(C)(CO)C5CCC43C)C12 (centres unmarked) [zhangnan-5] | 3.4 | 700 ± 190 | no obvious side effects have been found | 4.6 | 500 ± 70 | < 100 | > 30 | not sensitive | 2.4 ± 0.38 |
| CC(C)C1CCC2(C(=O)O)CCC3(C)C(CCC4C5(C)CCC(=O)C(C)(CO)C5CCC43C)C12 (centres unmarked) [zhangnan-7] | 9923 | 2.6 ± 0.5 |  | 13158 | 1.9 ± 0.2 |  | > 30 | not sensitive | 25.8 ± 4.9 |
| CC(C)C1CCC2(C(=O)O)CCC3(C)C(CCC4C5(C)CCC(O)C(C)(CO)C5CCC43C)C12 (centres unmarked) [zhangnan-8, 23-hydroxyl-dihydrobetulinic acid] | 7.3 | 1600 ± 230 |  | 9.4 | 1100 ± 90 |  | > 30 | not sensitive | 11.6 ± 3.5 |
